In patent publication US12371454B2, “Cyclic peptide compound having Kras inhibitory action” (priority 2019, dated 2025):
Positions of bridges follow the written chain, without caps; N, C: chain ends. Non-standard residues stand in square brackets, D forms with d. Residues, ends and D or L forms follow the SMILES beside them. *: point of attachment. hPhe(3-Cl-4-CF3) = N[C@@H](CCc1ccc(C(F)(F)F)c(Cl)c1)C(=O)O; hPhe(3-F,4-CF3) = N[C@@H](CCc1ccc(C(F)(F)F)c(F)c1)C(=O)O; hPhe(3,4-Cl2) = N[C@@H](CCc1ccc(Cl)c(Cl)c1)C(=O)O; hPhe(4-CF3) = N[C@@H](CCc1ccc(C(F)(F)F)cc1)C(=O)O; NMePhe(4-Cl) = CN[C@@H](Cc1ccc(Cl)cc1)C(=O)O; NMePhe(4-Me) = CN[C@@H](Cc1ccc(C)cc1)C(=O)O; Oic = O=C(O)[C@@H]1C[C@@H]2CCCC[C@@H]2N1; Phe(4-Cl) = N[C@@H](Cc1ccc(Cl)cc1)C(=O)O; NMeGly(cPent) = CN[C@H](C(=O)O)C1CCCC1; Phe(3-I) = N[C@@H](Cc1cccc(I)c1)C(=O)O; Met(O2) = CS(=O)(=O)CC[C@H](N)C(=O)O; NMeAla(cPr) = CN[C@@H](CC1CC1)C(=O)O; NMeCha = CN[C@@H](CC1CCCCC1)C(=O)O; NMehLeu = CN[C@@H](CCC(C)C)C(=O)O; Gly(N-(CH2)2OEt) = CCOCCNCC(=O)O; NMeChg = CN[C@H](C(=O)O)C1CCCCC1; NMeF = CN[C@@H](Cc1ccccc1)C(=O)O; NMeD = CN[C@@H](CC(=O)O)C(=O)O; NMeL = CN[C@@H](CC(C)C)C(=O)O; Cba = N[C@@H](CC1CCC1)C(=O)O; NMePra = C#CC[C@H](NC)C(=O)O; NMeV = CN[C@H](C(=O)O)C(C)C; d(β3hA) = C[C@@H](N)CC(=O)O; N(iPr)Gly = CC(C)NCC(=O)O; Pip = O=C(O)[C@@H]1CCCCN1; NMeA = CN[C@@H](C)C(=O)O; NMeAib = CNC(C)(C)C(=O)O; Piperidide = C1CCN(*)CC1; Pyrrolidide = C1CCN(*)C1; Ac5c = NC1(C(=O)O)CCCC1; Aze = O=C(O)[C@@H]1CCN1; Aib = CC(C)(N)C(=O)O; Sar = CNCC(=O)O; OAll = C=CCO*

Each compound was assayed against T1, Kras and SOS1 (biotin-tagged human Kras loaded with GDP, His-tagged human SOS1) (Homo sapiens, UniProt P01116, G12D) (assay: Protein-protein interaction inhibition between Kras and SOS1 (KrasGl2D-SOS PPI) using AlphaScreen). Settings: not given.
T1 construct: made in house; host or cells: E. coli (stated for Kras only)
Format: binding
Summary of the method: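 AlphaScreen format: Ni donor beads capture His-SOS1, streptavidin acceptor beads capture biotinylated Kras (E. coli-expressed, GDP-loaded post-purification). Excite 680 nm, read 520-620 nm.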

T1 sequence (P01116 1-188 isoform P01116-2 G12D): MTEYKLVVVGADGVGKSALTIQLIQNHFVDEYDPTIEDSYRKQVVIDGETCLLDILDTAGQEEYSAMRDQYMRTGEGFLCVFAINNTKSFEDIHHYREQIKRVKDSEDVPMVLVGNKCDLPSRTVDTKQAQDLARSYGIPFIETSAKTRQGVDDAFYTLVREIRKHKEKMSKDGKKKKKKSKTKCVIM

Row | SMILES | IC50 [nM]
1 | CC[C@H](C)[C@@H]1NC(=O)[C@H](CC(C)C)N(C)C(=O)C[C@@H](C(=O)N2CCCCC2)N(C)C(=O)[C@H](C2CCCCC2)N(C)C(=O)C2(CCCC2)NC(=O)[C@@H]2C[C@@H]3CCCC[C@@H]3N2C(=O)[C@H](CCc2ccc(C(F)(F)F)c(Cl)c2)NC(=O)CN(C)C(=O)[C@H](CC2CCCCC2)N(C)C(=O)CN(C)C(=O)CN(C)C1=O [Compound 297] ([NMeL]I[Sar][Sar][NMeCha][Sar][hPhe(3-Cl-4-CF3)][Oic][Ac5c][NMeChg][NMeD]-Piperidide; lactam N-11) | 49

Same assay, conditions: AlphaScreen; biotin-tagged human Kras loaded with GDP, His-tagged human SOS1; read-out: KRAS G12D-SOS PPI IC50

Row | SMILES | IC50 [nM]
2 | CC(C)C[C@H]1C(=O)N[C@@H](CCS(C)(=O)=O)C(=O)N(C)CC(=O)N(C)CC(=O)N(C)[C@@H](CC2CCCCC2)C(=O)N(C)CC(=O)N[C@@H](CCc2ccc(C(F)(F)F)c(Cl)c2)C(=O)N2CCC[C@H]2C(=O)NC2(CCCC2)C(=O)N(C)[C@@H](C2CCCCC2)C(=O)N(C)[C@H](C(=O)N2CCCCC2)CC(=O)N1C [Compound 283] ([NMeL][Met(O2)][Sar][Sar][NMeCha][Sar][hPhe(3-Cl-4-CF3)]P[Ac5c][NMeChg][NMeD]-Piperidide; lactam N-11) | 6.8
3 | C#CC[C@H]1C(=O)N(C)[C@H](C(=O)N2CCCCC2)CC(=O)N(C)[C@@H](CC(C)C)C(=O)N[C@@H]([C@@H](C)CC)C(=O)N(C)CC(=O)N(C)CC(=O)N(C)[C@@H](CC2CCCCC2)C(=O)N(C)CC(=O)N[C@@H](CCc2ccc(C(F)(F)F)c(Cl)c2)C(=O)N2CCC[C@H]2C(=O)NC2(CCCC2)C(=O)N1C [Compound 284] ([NMeL]I[Sar][Sar][NMeCha][Sar][hPhe(3-Cl-4-CF3)]P[Ac5c][NMePra][NMeD]-Piperidide; lactam N-11) | 71
4 | CC[C@H](C)[C@@H]1NC(=O)[C@@H]2CCCCN2C(=O)C[C@@H](C)NC(=O)[C@H](CC(C)C)N(C)C(=O)C(C)(C)NC(=O)[C@H](CC(C)C)N(C)C(=O)[C@H](CCc2ccc(C(F)(F)F)cc2)NC(=O)CN(C)C(=O)[C@H](Cc2ccc(Cl)cc2)N(C)C(=O)CN(C)C(=O)CN(C)C1=O [Compound 286] (cyclo([Aib][NMeL][d(β3hA)][Pip]I[Sar][Sar][NMePhe(4-Cl)][Sar][hPhe(4-CF3)][NMeL])) | 96
5 | CC(C)C[C@H]1C(=O)N[C@@H](CC2CCC2)C(=O)N(C)CC(=O)N(C)CC(=O)N(C)[C@@H](CC2CCCCC2)C(=O)N(C)CC(=O)N[C@@H](CCc2ccc(C(F)(F)F)c(Cl)c2)C(=O)N2CCC[C@H]2C(=O)NC2(CCCC2)C(=O)N(C)[C@@H](C(C)C)C(=O)N[C@H](C)CC(=O)N1C [Compound 290] (cyclo([Ac5c][NMeV][d(β3hA)][NMeL][Cba][Sar][Sar][NMeCha][Sar][hPhe(3-Cl-4-CF3)]P)) | 160
6 | CC[C@H](C)[C@@H]1NC(=O)[C@H](C)N(C)C(=O)C[C@@H](C(=O)N2CCCCC2)N(C)C(=O)[C@H](C(C)C)N(C)C(=O)C2(CCCC2)NC(=O)[C@@H]2CCCN2C(=O)[C@H](CCc2ccc(C(F)(F)F)c(Cl)c2)NC(=O)[C@H]2CCCN2C(=O)[C@H](CC2CCCCC2)N(C)C(=O)[C@@H]2CCN2C(=O)[C@H](C)N(C)C1=O [Compound 293] ([NMeA]I[NMeA][Aze][NMeCha][dP][hPhe(3-Cl-4-CF3)]P[Ac5c][NMeV][NMeD]-Piperidide; lactam N-11) | 120
7 | CC[C@H](C)[C@@H]1NC(=O)[C@H](CC(C)C)N(C)C(=O)C[C@@H](C(=O)N2CCCCC2)N(C)C(=O)[C@H](CC(C)C)NC(=O)C(C)(C)N(C)C(=O)[C@H](CC(C)C)NC(=O)[C@H](Cc2cccc(I)c2)NC(=O)CN(C)C(=O)[C@H](Cc2ccc(Cl)cc2)N(C)C(=O)CN(C)C(=O)CN(C)C1=O [Compound 295] ([NMeL]I[Sar][Sar][NMePhe(4-Cl)][Sar][Phe(3-I)]L[NMeAib]L[NMeD]-Piperidide; lactam N-11) | 68
8 | CC[C@H](C)[C@@H]1NC(=O)[C@H](CC(C)C)N(C)C(=O)C[C@@H](C(=O)N2CCCCC2)NC(=O)[C@H](CC(C)C)N(C)C(=O)C2(CCCC2)NC(=O)[C@@H]2CCCN2C(=O)[C@H](CCc2ccc(C(F)(F)F)c(F)c2)NC(=O)CN(C)C(=O)[C@H](CC2CCCCC2)N(C)C(=O)CN(C)C(=O)CN(C)C1=O [Compound 298] ([NMeL]I[Sar][Sar][NMeCha][Sar][hPhe(3-F,4-CF3)]P[Ac5c][NMeL]D-Piperidide; lactam N-11) | 21
9 | CC[C@H](C)[C@@H]1NC(=O)[C@H](C)N(C)C(=O)C[C@@H](C)NC(=O)[C@H](CC(C)C)N(C)C(=O)[C@H](Cc2ccccc2)N(C)C(=O)[C@@H]2CCCCN2C(=O)[C@H](CCc2ccc(C(F)(F)F)cc2)NC(=O)CN(C)C(=O)[C@H](Cc2ccc(Cl)cc2)N(C)C(=O)CN(C)C(=O)CN(C)C1=O [Compound 299] (cyclo(I[Sar][Sar][NMePhe(4-Cl)][Sar][hPhe(4-CF3)][Pip][NMeF][NMeL][d(β3hA)][NMeA])) | 130
10 | CC[C@H](C)[C@@H]1NC(=O)[C@H](CCC(C)C)N(C)C(=O)C[C@@H](C(=O)N(C)C)N(C)C(=O)[C@H](C2CCCC2)N(C)C(=O)C2(CCCC2)NC(=O)[C@@H]2CCCN2C(=O)[C@H](CCc2ccc(C(F)(F)F)c(Cl)c2)NC(=O)CN(C)C(=O)[C@H](Cc2ccc(C)cc2)N(C)C(=O)[C@@H]2CCN2C(=O)[C@H](C)NC1=O [Compound 303, (5S,8S,11S,15S,18S,23aS,29S,35S,37aS)-8-((S)-sec-butyl)-29-(3-chloro-4-(trifluoromethyl)phenethyl)-18-cyclopentyl-11-isopentyl-N,N,5,12,16,19,33,36-octamethyl-35-(4-methylbenzyl)-4,7,10,13,17,20,23,28,31,34,37-undecaoxotetratriacontahydro-2H,4H-spiro[azeto[2,1-u]pyrrolo[2,1-i][1,4,7,10,13,16,19,22,25,28,31]undecaazacyclotetratriacontine-21,1′-cyclopentane]-15-carboxamide] ([NMehLeu]IA[Aze][NMePhe(4-Me)][Sar][hPhe(3-Cl-4-CF3)]P[Ac5c][NMeGly(cPent)][NMeD]-NMe2; lactam N-11) | 0.68
11 | CC[C@H](C)[C@@H]1NC(=O)[C@H](CC(C)C)N(C)C(=O)C[C@@H](C)NC(=O)[C@H](C(C)C)N(C)C(=O)C2(CCCC2)NC(=O)[C@@H]2CCCN2C(=O)[C@H](CCc2ccc(C(F)(F)F)c(Cl)c2)NC(=O)CN(C)C(=O)[C@H](CC2CCCCC2)N(C)C(=O)CN(C)C(=O)CN(C(C)C)C1=O [Compound 305] (cyclo([Ac5c][NMeV][d(β3hA)][NMeL]I[N(iPr)Gly][Sar][NMeCha][Sar][hPhe(3-Cl-4-CF3)]P)) | 170
12 | C=CCOC(=O)CC[C@@H]1NC(=O)[C@H](CCc2ccc(C(F)(F)F)cc2)NC(=O)CN(C)C(=O)[C@H](Cc2ccc(Cl)cc2)N(C)C(=O)CN(C)C(=O)CN(C)C(=O)[C@H]([C@@H](C)CC)NC(=O)[C@H](C)N(C)C(=O)C[C@@H](C(=O)N2CCCC2)NC(=O)[C@H](CC(C)C)N(C)C(=O)[C@H](Cc2ccccc2)N(C)C1=O [Compound 306] ([NMeA]I[Sar][Sar][NMePhe(4-Cl)][Sar][hPhe(4-CF3)]E(OAll)[NMeF][NMeL]D-Pyrrolidide; lactam N-11) | 44
13 | CC[C@H](C)[C@@H]1NC(=O)[C@H](CC(C)C)N(C)C(=O)C[C@@H](C(=O)N2CCCC2)N(C)C(=O)[C@H](CC(C)C)NC(=O)C(C)(C)N(C)C(=O)[C@H](CC(C)C)NC(=O)[C@H](CCc2ccc(C(F)(F)F)c(F)c2)NC(=O)CN(C)C(=O)[C@H](CC2CCCCC2)N(C)C(=O)CN(C)C(=O)CN(C)C1=O [Compound 312] ([NMeL]I[Sar][Sar][NMeCha][Sar][hPhe(3-F,4-CF3)]L[NMeAib]L[NMeD]-Pyrrolidide; lactam N-11) | 1
14 | CC[C@H](C)[C@@H]1NC(=O)[C@H](CC(C)C)N(C)C(=O)C[C@@H](C(=O)N2CCCCC2)N(C)C(=O)[C@H](CC(C)C)NC(=O)C(C)(C)N(C)C(=O)[C@H](Cc2ccc(OC)cc2)NC(=O)[C@H](Cc2cccc(I)c2)NC(=O)CN(C)C(=O)[C@H](CC2CCCCC2)N(C)C(=O)CN(C)C(=O)CN(C)C1=O [Compound 320] ([NMeL]I[Sar][Sar][NMeCha][Sar][Phe(3-I)]Y(Me)[NMeAib]L[NMeD]-Piperidide; lactam N-11) | 9.9
15 | CC[C@H](C)[C@@H]1NC(=O)[C@H](CC(C)C)N(C)C(=O)C[C@@H](C(=O)N2CCCCC2)N(C)C(=O)[C@H](C(C)C)N(C)C(=O)C2(CCCC2)NC(=O)[C@@H]2CCCN2C(=O)[C@H](CCc2ccc(Cl)c(Cl)c2)NC(=O)CN(C)C(=O)[C@H](CC2CCCCC2)N(C)C(=O)[C@@H]2CCCCN2C(=O)CN(C)C1=O [Compound 324] ([NMeL]I[Sar][Pip][NMeCha][Sar][hPhe(3,4-Cl2)]P[Ac5c][NMeV][NMeD]-Piperidide; lactam N-11) | 380
16 | CC[C@H](C)[C@@H]1NC(=O)[C@H](CC(C)C)N(C)C(=O)C[C@@H](C(=O)N2CCCCC2)N(C)C(=O)[C@H](C(C)C)N(C)C(=O)C2(CCCC2)NC(=O)[C@@H]2CCCN2C(=O)[C@H](CCc2ccc(C(F)(F)F)c(Cl)c2)NC(=O)CN(C)C(=O)[C@H](CC2CC2)N(C)C(=O)CN(C)C(=O)CN(C)C1=O [Compound 325] ([NMeL]I[Sar][Sar][NMeAla(cPr)][Sar][hPhe(3-Cl-4-CF3)]P[Ac5c][NMeV][NMeD]-Piperidide; lactam N-11) | 14
17 | CCOCCN1CC(=O)N(C)CC(=O)N(C)[C@@H](CC2CCCCC2)C(=O)N(C)CC(=O)N[C@@H](CCc2ccc(C(F)(F)F)c(Cl)c2)C(=O)N2CCC[C@H]2C(=O)NC2(CCCC2)C(=O)N(C)[C@@H](C(C)C)C(=O)N[C@H](C)CC(=O)N(C)[C@@H](CC(C)C)C(=O)N[C@@H]([C@@H](C)CC)C1=O [Compound 329] (cyclo([Ac5c][NMeV][d(β3hA)][NMeL]I[Gly(N-(CH2)2OEt)][Sar][NMeCha][Sar][hPhe(3-Cl-4-CF3)]P)) | 40
18 | CC[C@H](C)[C@@H]1NC(=O)[C@H](CC(C)C)N(C)C(=O)C[C@@H](C(=O)N2CCCCC2)N(C)C(=O)[C@H](CC(C)C)NC(=O)C(C)(C)N(C)C(=O)[C@H](Cc2ccc(Cl)cc2)NC(=O)[C@H](Cc2cccc(I)c2)NC(=O)CN(C)C(=O)[C@H](CC2CCCCC2)N(C)C(=O)CN(C)C(=O)CN(C)C1=O [Compound 330] ([NMeL]I[Sar][Sar][NMeCha][Sar][Phe(3-I)][Phe(4-Cl)][NMeAib]L[NMeD]-Piperidide; lactam N-11) | 80
